This passage reports GI50 and TGI results from PubChem BioAssay (NCI).

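Dose response: 5 concentrations. Exposure: 48 h. Format: 96-well plates. Endpoint: linear interpolation; highest concentration if not reached. At the GI50, growth is halved. TGI marks complete inhibition of growth.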

Holding throughout (assay): NCI anticancer screen, dose series, 48 h
Experiment [1] has as its system MOLT-4 leukemia.
Experiment [2] concerns OVCAR-4 ovarian.
Experiment [3] deals with HCT-15 colon.
Experiment [4] concerns SK-MEL-5 melanoma.
The subject of experiment [5] is SF-268 CNS.
The test system of experiment [6] is SN12C renal.
For experiment [7], the system named is SNB-75 CNS.
For experiment [8], the system named is UACC-257 melanoma.
In experiment [9] the test system is HT29 colon.
The test system of experiment [10] is M14 melanoma.

Consider `Cc1cc(N(CCCNc2ccnc3cc(Cl)ccc23)Cc2ccc3c(c2)OCO3)nc(N2CCOCC2)n1`, for which the GI50 in experiment [1] was 0.283 µM; in experiment [2] it was 0.402 µM; in experiment [3], 0.311 µM; in experiment [4], 0.169 µM; in [5], 0.304 µM; in experiment [6], 0.292 µM. The GI50 in experiment [7] is 0.204 µM; in experiment [8], 0.214 µM; in [9] it was 0.247 µM. The TGI in experiment [1] amounted to 0.953 µM; in experiment [2], 32.8 µM; in experiment [3], 11.7 µM; in [4] it was 0.309 µM; in [5] it was 24.7 µM; in experiment [6], 14.4 µM. The TGI in [7] was found to be 0.626 µM; in [8], 0.625 µM; in [9] it was 0.695 µM.

In the case of `COC12OCCN(C)C1=CC(=O)C1=NNC(C)C12` (stereo not given), the TGI in [1], in experiment [3], in [4], in experiment [6], in experiment [7] and in experiment [10] was over 100 µM each time. For the same molecule, the TGI in experiment [8] and in experiment [9] was over 100 µM each time.

As for `COc1cc(/C=C\c2cc(OC)c(OC)c(OC)c2)cc(N/C=C\C(=O)c2cc(OC)c(OC)c(OC)c2)c1OC`, the GI50 is 4.62 µM in experiment [1]; 2.91 µM in [2]; 3.08 µM in [3]; 1.69 µM in [4]; 6.04 µM in experiment [5]; 4.03 µM in [6]. In addition, the GI50 was 1.39 µM in [7], over 100 µM in experiment [8] and 3.21 µM in [9]. The TGI is over 100 µM in [1]; over 100 µM in experiment [2]; over 100 µM in experiment [3]; 4.48 µM in [4]; over 100 µM in [5]; over 100 µM in experiment [6]. Further, the TGI in [7] was 4.81 µM; in [8], over 100 µM; in experiment [9], 14.8 µM.

Regarding `COc1cccc2c1C(=O)c1c(O)c3c(c(O)c1C2=O)C[C@@](O)(/C(C)=N/NC(=O)c1ccc(Cl)cc1)C[C@@H]3OC1CC(N)C(O)C(C)O1` (stereo not given in full), the GI50 in [1] is 0.0545 µM; in experiment [2], 0.348 µM; in [3], 1.02 µM; in experiment [6] it was 0.156 µM; in experiment [7], 0.102 µM; in [8], 0.188 µM. For the same molecule, in experiment [9], the GI50 was 0.232 µM. Further, the TGI came out at 3.31 µM in experiment [1]; 2.31 µM in experiment [2]; 12.6 µM in experiment [3]; 3 µM in experiment [6]; 0.552 µM in experiment [7]; 0.867 µM in experiment [8]. The TGI in [9] was 1.41 µM.

Consider `CN(C)CCSc1cc(-c2ccccc2)c2ccccc2n1`, for which the TGI in experiment [3] amounted to 14.6 µM; in experiment [4] it was 4.7 µM; in experiment [5] it was 27.1 µM; in experiment [6] it was 32.2 µM; in experiment [10], 7.01 µM; in [8], 24.8 µM. The TGI in experiment [9] is 35.8 µM.

As for `O=C1c2cc3c(cc2-c2c1c1cc(Cl)c(Cl)cc1c(=O)n2C[C@H](O)CO)OCO3`, the GI50 was 0.0127 µM in experiment [3]; under 0.01 µM in [4]; under 0.01 µM in experiment [5]; under 0.01 µM in [6]; under 0.01 µM in experiment [7]; 0.0123 µM in experiment [8]. Also, the TGI in [3] turned out to be 14.3 µM; in [4], 0.0134 µM; in experiment [5] it was 2.7 µM; in [6], 0.122 µM; in experiment [7] it was 0.0786 µM; in [8], 0.217 µM.

As to `CN(C)c1ncnc2c1ncn2CCn1cnc2c(N(C)C)ncnc21`, the TGI in experiment [2], in [3], in experiment [4], in [5], in experiment [6] and in experiment [7] was over 100 µM throughout. Also, the TGI in [10], in experiment [8] and in experiment [9] was over 100 µM throughout.

Take `CC(C(=O)O)c1cccc(Oc2ccccc2)c1` (stereo not given): the GI50 in [1], in experiment [3], in [4], in experiment [5], in experiment [6] and in [7] was over 100 µM in each case. The GI50 in [10], in [8] and in [9] was over 100 µM each time. The TGI in experiment [1], in experiment [3], in experiment [4], in experiment [5], in experiment [6] and in [7] was over 100 µM throughout. Further, the TGI in [10], in experiment [8] and in experiment [9] was over 100 µM each time.

Consider `S=c1[nH]c2c(Cl)c(Cl)c(Cl)c(Cl)c2[nH]1`, for which the TGI in [1] amounted to 78 µM; in experiment [2] it was 22.6 µM; in experiment [3], 53.5 µM; in [4], 37.2 µM; in [5], 42.7 µM; in experiment [6] it was 47 µM. Further, the TGI turned out to be 54.3 µM in experiment [10], 46.4 µM in experiment [8] and 48.1 µM in experiment [9].

`COc1ccc(/C(=C\C=C(C#N)C#N)Sc2nc3ccccc3s2)cc1`: the GI50 was 7.87 µM in experiment [4]; 8.53 µM in [5]; 7.06 µM in experiment [6]; 2.52 µM in experiment [10]; 10.3 µM in experiment [8]; 1.54 µM in experiment [9]. Besides, the TGI in [4] was 16.5 µM; in [5], 25.2 µM; in experiment [6], 32.8 µM; in experiment [10] it was 9.08 µM; in experiment [8], 23.7 µM; in experiment [9] it was 6.06 µM.
